{"source": "patent US6613317B1", "about": "“Volatile attractants for diabrotica species” (priority 1988, dated 2003)", "key": {"[1]": {"system": "western corn rootworm (WCR) adults", "conditions": "in vivo; cited from earlier work"}, "[2]": {"system": "southern corn rootworm (SCR) adults", "assay": "Sticky trap attraction in corn, estragole analogues (Example 3)", "type": "in vivo, Diabrotica undecimpunctata howardi", "conditions": "100 mg per trap, n = 4", "how_it_was_run": "(§1)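 Cotton wicks dosed with 100 mg or 100 μL attractant per trap on TangleTrap-coated cartons, four replicates 10 m apart on 1 m posts at field edges of hybrid or sweet corn. Mean beetles caught after ~24 h; log-transformed ANOVA with Duncan's test, P=0.05.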"}, "WCR": {"system": "WCR", "conditions": "in vivo; cited from earlier work"}, "D. barberi [3]": {"system": "D. barberi", "assay": "Sticky trap attraction along hybrid corn, Pomology South Farms (Example 2)", "type": "in vivo, Diabrotica barberi", "conditions": "August 7; 100 mg per trap; n = 4", "description": "(§2) The candidate lures in all experiments were purchased commercially and exceeded 98% purity. The test chemicals were applied by capillary micropipettes to cotton dental wicks which were attached to the tops of 1.0 liter cylindrical paper cartons covered with TangleTrap™ (Tanglefoot Co., Grand Rapids, Mich.). The sticky trap techniques used were as described in Example 1. Cinnamyl alcohol and para-methoxycinnamaldehyde, which are solids, were dissolved in glass-distilled acetone prior to dosing the cotton wicks. All treatments were applied at a dosage of 100 mg per trap. 1,2,4-trimethoxybenzene, indole, and trans-cinnamaldehyde were mixed in a ratio of 1:1:1, by weight, immediately prior to dosing the cotton wicks. Control traps had untreated cotton wicks. Four replicates of treated and untreated traps were randomly positioned 10 meters apart on top of 1 m high posts along the border of a eight foot wide strip cut through the middle of a 4.05 ha relict prairie at Trelease Woods (ca. two miles northeast of Urbana, Ill.). The field consisted primarily of Andropogon gerardii Vitman (big bluestem) and a variety of composites. The tests were conducted in mid-August of two years and were timed to coincide with the presence of D. cristata and D. barberi adults in the flower heads of Canada thistle (Carduus arvensis Robson). In the second year, several new attractants of D. v. virgifera and D. barberi were tested in Trelease Woods and along the edge of a 0.8 ha field of hybrid corn located at the Pomology South Farms, Urbana, Ill. Attraction of Diabrotica species to the various lures was measured by the mean number of beetles caught after 24-h. On one date in late August of the first year, D. cristata and D. barberi were removed from the traps and sexed in the laboratory. The significance of treatments in all tests was determined by an analysis of variance and the individual means were separated by Duncan's multiple range test (Statistical Package for Social Science, Nie, et al., SPSS: statistical package for the social sciences, 2nd ed. McGraw-Hill, New York (1975). Data were logarithmically transformed for statistical analysis and the means and standard deviations are presented for the untransformed data."}, "D. u. howardi [4]": {"system": "D. u. howardi", "assay": "Sticky trap attraction along hybrid corn, Pomology South Farms (Example 2)", "type": "in vivo, Diabrotica undecimpunctata howardi", "conditions": "August 7; 100 mg per trap; n = 4", "description": "as §2"}, "[5]": {"system": "western corn rootworm (WCR) adults", "assay": "Sticky trap attraction in corn, estragole analogues (Example 3)", "type": "in vivo, Diabrotica virgifera virgifera", "conditions": "100 mg per trap", "how_it_was_run": "as §1"}, "D. cristata": {"system": "D. cristata", "assay": "Sticky trap attraction in prairie habitat, Trelease Woods (Example 2)", "type": "in vivo, Diabrotica cristata", "conditions": "100 mg per trap, n = 4", "how_it_was_run": "(§3)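 Lure-dosed cotton wicks (solids in acetone; untreated controls) on TangleTrap-coated cartons atop 1 m posts, four replicates 10 m apart in relict prairie, mid-August over two years. Read-out: mean beetles caught after 24-h; log-transformed ANOVA with Duncan's multiple range test.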"}, "D. v. virgifera [6]": {"system": "D. v. virgifera", "assay": "Sticky trap attraction along hybrid corn, Pomology South Farms (Example 2)", "type": "in vivo, Diabrotica virgifera virgifera", "conditions": "August 7; 100 mg per trap; n = 4", "description": "as §2"}, "[7]": {"system": "northern corn rootworm (NCR) adults", "assay": "Sticky trap attraction in corn, estragole analogues (Example 3)", "type": "in vivo, Diabrotica barberi", "conditions": "August 7 (Table 11); 100 mg per trap; n = 4", "how_it_was_run": "as §1"}, "D. u. howardi [8]": {"system": "D. u. howardi", "assay": "Sticky trap attraction in prairie habitat, Trelease Woods (Example 2)", "type": "in vivo, Diabrotica undecimpunctata howardi", "conditions": "100 mg per trap, n = 4", "how_it_was_run": "as §3"}, "D. barberi [9]": {"system": "D. barberi", "assay": "Sticky trap attraction in prairie habitat, Trelease Woods (Example 2)", "type": "in vivo, Diabrotica barberi", "conditions": "100 mg per trap, n = 4", "how_it_was_run": "as §3"}, "D. v. virgifera [10]": {"system": "D. v. virgifera", "assay": "Sticky trap attraction in prairie habitat, Trelease Woods (Example 2)", "type": "in vivo, Diabrotica virgifera virgifera", "conditions": "100 mg per trap, n = 4", "how_it_was_run": "as §3"}}, "note": "Marks after values point to notes of the source that are not given here.", "data": [{"compound": "C=CCc1ccc(OC)cc1", "note": "[I, 4-methoxy-1-allylbenzene]", "values": [{"measurement": "LR values for WCR attraction (literature)", "setting": "[1]", "value": "about 3 mg"}, {"measurement": "Mean number of SCR adults per sticky trap (±standard deviation) after 24 hours", "setting": "[2]; August 4 second year", "value": "7.2 ± 5.1^a per sticky trap"}, {"measurement": "Mean number of SCR adults per sticky trap (±standard deviation) after 24 hours", "setting": "[2]; August 5 first year", "value": "9.2 ± 5.6^a per sticky trap"}, {"measurement": "Mean number of SCR (±standard deviation) per sticky trap after 24 hours", "setting": "[2]; August 7 (Table 11)", "value": "7.0 ± 4.5^a per sticky trap"}, {"measurement": "LR for WCR, most effective volatile attractants yet identified", "setting": "WCR", "value": 3, "unit": "mg"}, {"measurement": "Mean number of D. barberi per stick trap per day (±standard deviation) in corn", "setting": "D. barberi [3]", "value": "2.3 ± 2.1^ab per stick trap per day"}, {"measurement": "Mean number of D. u. howardi per stick trap per day (±standard deviation) in corn", "setting": "D. u. howardi [4]", "value": "7.0 ± 4.5^a per stick trap per day"}, {"measurement": "Mean number of WCR adults per sticky trap (±standard deviation) after 24 hours", "setting": "[5]; August 4 second year, n = 4", "value": "84.5 ± 19.7^d per sticky trap"}, {"measurement": "Mean number of WCR adults per sticky trap (±standard deviation) after 24 hours", "setting": "[5]; August 5 first year, n = 4", "value": "17.2 ± 7.8^c per sticky trap"}, {"measurement": "Mean number of WCR (±standard deviation) per sticky trap after 24 hours", "setting": "[5]; August 7 (Table 11), n = 4", "value": "64.0 ± 15.9^b per sticky trap"}, {"measurement": "Relative percent activity as compared with the highest mean in the column (WCR)", "setting": "[5]; August 29", "value": 100, "unit": "%"}, {"measurement": "Mean number of WCR per sticky trap (±standard deviation) after 24 hours", "setting": "[5]; August 29, n = 4", "value": "147.2 ± 46.5", "unit": "per sticky trap"}, {"measurement": "Relative percent activity as compared with the highest mean in the column (WCR)", "setting": "[5]; July 30", "value": 100, "unit": "%"}, {"measurement": "Mean number of WCR per sticky trap (±standard deviation) after 24 hours", "setting": "[5]; July 30, n = 4", "value": "82.1 ± 8.6", "unit": "per sticky trap"}, {"measurement": "Mean number of D. cristata per day (±standard deviation)", "setting": "D. cristata; August 11, 1987", "value": "13.5 ± 4.1^b per day"}, {"measurement": "Mean number of D. cristata per day (±standard deviation)", "setting": "D. cristata; August 14, 1987", "value": "13.0 ± 4.2^c per day"}, {"measurement": "Mean number of D. cristata per sticky trap per day (±standard deviation)", "setting": "D. cristata; August 27, first year", "value": "5.3 ± 1.0^b per sticky trap per day"}, {"measurement": "Mean number of D. v. virgifera per stick trap per day (±standard deviation) in corn", "setting": "D. v. virgifera [6]", "value": "64.0 ± 15.9^b per stick trap per day"}, {"measurement": "Mean number of NCR (±standard deviation) per sticky trap after 24 hours", "setting": "[7]", "value": "2.2 ± 2.1^ab per sticky trap"}, {"measurement": "Mean number of D. u. howardi per day (±standard deviation)", "setting": "D. u. howardi [8]; August 11, 1987", "value": "0.3 ± 0.5^a per day"}, {"measurement": "Mean number of D. u. howardi per day (±standard deviation)", "setting": "D. u. howardi [8]; August 14, 1987", "value": "0.5 ± 0.7^a per day"}, {"measurement": "Mean number of D. u. howardi per sticky trap per day (±standard deviation)", "setting": "D. u. howardi [8]; August 27, first year", "value": "3.0 ± 2.8^a per sticky trap per day"}, {"measurement": "Mean number of D. barberi per day (±standard deviation)", "setting": "D. barberi [9]; August 11, 1987", "value": "1.0 ± 2.0^a per day"}, {"measurement": "Mean number of D. barberi per day (±standard deviation)", "setting": "D. barberi [9]; August 14, 1987", "value": "4.0 ± 0.8^b per day"}, {"measurement": "Mean number of D. barberi per sticky trap per day (±standard deviation)", "setting": "D. barberi [9]; August 27, first year", "value": "6.5 ± 3.7^b per sticky trap per day"}, {"measurement": "Mean number of D. v. virgifera per day (±standard deviation)", "setting": "D. v. virgifera [10]; August 11, 1987", "value": "0.3 ± 0.5^a per day"}, {"measurement": "Mean number of D. v. virgifera per day (±standard deviation)", "setting": "D. v. virgifera [10]; August 14, 1987", "value": "0.3 ± 0.5^a per day"}, {"measurement": "Mean number of D. v. virgifera per sticky trap per day (±standard deviation)", "setting": "D. v. virgifera [10]; August 27, first year", "value": 0, "unit": "per sticky trap per day"}]}]}
